In patent publication US20040029100A1, “Rapid screen to identify p-glycoprotein substrates and high affinity modulators” (priority 2000, published 2004):
Like-named read-outs stand apart in the source and are kept apart here. Square brackets hold non-standard residues; d marks the D form. Peptide text beside a SMILES is read from it. * marks the point of attachment. Sta = CC(C)C[C@H](N)[C@@H](O)CC(=O)O; Isovaleryl = CC(C)CC(=O)*; Cbz = O=C(OCc1ccccc1)*; Boc = CC(C)(C)OC(=O)*; OBn = c1ccc(CO*)cc1; OtBu = CC(C)(C)O*

Tests used:
[1] = target: T1, P-glycoprotein (Pgp) purified from MDR CH^RB30 Chinese hamster ovary cells (Cricetulus griseus, UniProt P21448); experiment: in vitro; settings: for ΔFmax: maximal quenching reached at saturation
Description: (§1) Purification of Pgp. Pgp was purified from plasma membrane of MDR CH^RB30 cells by a modification of the method previously described for CH^RC5 (27). […] Contaminating glycoproteins were removed from the S2 fraction by passing through a concanavalinA-Sepharose 4B column (Pharmacia) equilibrated with 2 mM CHAPS buffer. […] The Pgp preparation was kept on ice and used within 24 h.
(§2) Steady-state Fluorescence Measurements. Steady-state fluorescence measurements were performed using a Spex Model DM3000 spectrofluorimeter (Spex Industries Inc., Edison, N.J.) at 22° C., with excitation and emission bandpass set to 4 nm. Most fluorescence studies were carried out on solutions of 100 μg/mL Pgp in 2 mM CHAPS buffer, in the presence of 0.5 mg/mL of the phospholipid PMPC (Avanti Polar Lipids, Alabaster, Ala.). PMPC was added as extruded 100 nm unilamellar vesicles (8). With some drugs, the use of a lipid was not required for the fluorescence measurements. The excitation and emission spectra were the average of three scans, and were corrected by subtracting control scans with the same phospholipid buffer in the absence of protein.
(§3) Quenching Studies using TNP-Nucleotide Derivatives and Drugs. […] Working solutions of TNP-derivatives, and non-peptide drugs and modulators were also prepared in 2 mM CHAPS with 0.5 mg/mL PMPC vesicles, whereas peptide-based drugs and modulators were dissolved in dimethylsulfoxide (DMSO). […] Quenching experiments were performed by successively adding 5 μL aliquots of TNP-derivatives or drug solution to 500 μL of Pgp solution in a 0.5 cm quartz cuvette. After each addition, the sample was excited at 290 nm and the steady-state fluorescence emission was measured at 330 nm. Fluorescence intensities were corrected for dilution, scattering, and the inner filter effect as described elsewhere (8). Control titrations were performed with 30 μM NATA to assess the non-specific quenching of Trp fluorescence by TNP-nucleotide derivatives and drugs.
(§4) The experimental quenching data were computer-fitted to the following equation as described previously (8)(9): [formula]
(§5) where (ΔF/F0 100) is the percent quenching (percent change in fluorescence relative to the initial value), following addition of substrate at a concentration [S], and Kd is the dissociation constant. Fitting was carried out using nonlinear regression with the Marquardt-Levenberg algorithm (SigmaPlot, SPSS Inc., Chicago, Ill.), and values of Kd and (ΔFmax/F0 100) were extracted. For biphasic titration curves, each section of the binding curve was fitted to the above equation separately, as described previously (32).

[2] = target: T1, P-glycoprotein (Pgp) purified from MDR CH^RB30 Chinese hamster ovary cells; experiment: Trp fluorescence lifetime of purified Pgp in presence of nucleotides and drugs; parameters: Pgp was purified from plasma membrane of MDR CH^RB30 cells; endogenous in cells; host or cells: MDR CH^RB30 Chinese hamster ovary cells (plasma membrane, CHAPS extraction, concanavalin A-Sepharose pass-through); settings: Pgp Trp decay, concentration of substance
Description: as §1
Fluorescence Lifetime Measurements. Fluorescence decays were measured with a PTI Model C-720 fluorescence lifetime instrument ((28), Photon Technology International Inc., Lawrenceville, N.J.) utilizing a proprietary stroboscopic detection technique (29). […] Fluorescence decays were analyzed with a PTI TimeMaster Pro analysis package using a discrete 1- to 4- exponential fit, 1- to 4-exponential global analysis, or lifetime distribution analysis by the Exponential Series Method (ESM) (30). The quality of fits was judged by chi-square values and weighed residuals.

P-glycoprotein (Pgp) = P-glycoprotein (Pgp) (Cricetulus griseus, UniProt P21448); experiment: in vitro; settings: Chinese hamster, Kd2
Description: as §1, §2, §3, §4, §5

[3] = maximal Trp quenching, lower affinity component
[4] = maximal Trp quenching, single or higher affinity component
[5] = read-out: Kd2, lower affinity site of biphasic quench curve
[6] = read-out: Kd1, single binding site or high affinity site, 100 μg/mL Pgp, 2 mM CHAPS, 0.5 mg/mL PMPC, 22° C.
[7] = Kd1, single binding site or high affinity site, 100 μg/mL Pgp, 2 mM CHAPS, 0.5 mg/mL PMPC, 22° C.

T1 sequence (P21448 whole entry): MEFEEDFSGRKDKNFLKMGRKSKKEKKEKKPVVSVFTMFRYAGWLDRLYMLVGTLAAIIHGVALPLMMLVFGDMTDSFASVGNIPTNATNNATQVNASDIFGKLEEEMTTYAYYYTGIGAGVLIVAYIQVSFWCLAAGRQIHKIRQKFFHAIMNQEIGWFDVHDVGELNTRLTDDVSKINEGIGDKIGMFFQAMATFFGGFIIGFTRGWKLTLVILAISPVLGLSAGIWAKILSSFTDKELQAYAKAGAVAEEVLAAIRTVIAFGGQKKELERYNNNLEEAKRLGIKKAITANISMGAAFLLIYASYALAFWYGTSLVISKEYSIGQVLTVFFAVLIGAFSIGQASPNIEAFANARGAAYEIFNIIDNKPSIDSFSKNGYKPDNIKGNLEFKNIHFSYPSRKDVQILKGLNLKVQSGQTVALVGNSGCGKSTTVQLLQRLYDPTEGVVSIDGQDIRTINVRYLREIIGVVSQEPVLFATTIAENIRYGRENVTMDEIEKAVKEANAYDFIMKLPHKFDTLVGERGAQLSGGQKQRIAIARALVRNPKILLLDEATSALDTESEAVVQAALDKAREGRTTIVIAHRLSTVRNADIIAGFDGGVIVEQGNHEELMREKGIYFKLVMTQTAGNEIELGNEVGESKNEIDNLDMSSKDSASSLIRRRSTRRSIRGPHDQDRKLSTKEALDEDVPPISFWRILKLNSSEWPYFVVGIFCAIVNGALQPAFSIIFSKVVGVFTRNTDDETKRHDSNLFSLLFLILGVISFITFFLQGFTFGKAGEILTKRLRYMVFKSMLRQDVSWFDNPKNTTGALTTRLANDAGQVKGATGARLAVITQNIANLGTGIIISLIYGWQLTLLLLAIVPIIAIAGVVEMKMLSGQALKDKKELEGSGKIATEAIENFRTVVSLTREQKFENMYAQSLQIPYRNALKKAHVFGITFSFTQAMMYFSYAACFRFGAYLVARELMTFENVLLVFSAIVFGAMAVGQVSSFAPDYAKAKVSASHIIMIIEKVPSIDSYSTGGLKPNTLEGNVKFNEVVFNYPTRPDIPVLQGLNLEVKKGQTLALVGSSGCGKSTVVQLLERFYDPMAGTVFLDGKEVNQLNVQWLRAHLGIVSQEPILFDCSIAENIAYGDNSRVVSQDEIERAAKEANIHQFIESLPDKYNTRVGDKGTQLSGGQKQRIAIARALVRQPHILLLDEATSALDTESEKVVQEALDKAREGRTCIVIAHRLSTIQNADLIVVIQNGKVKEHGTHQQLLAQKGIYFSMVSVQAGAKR
Chain of P-glycoprotein (Pgp) (P21448 whole entry): as above

## rhodamine 123
[1]
  Kd: 6.81 ± 0.71 µM
  ΔFmax: ~100%
[1]; [3]
  ΔFmax2: 107.2 ± 1.8%
[1]; [4]
  ΔFmax1: 47.5 ± 2.5%
[1]; [5]
  Kd: 29.8 ± 1 µM
[2]
  <tav> (amplitude average lifetime): 2.73 ns
  a1 (pre-exponential value): 0.65
  a2 (pre-exponential value): 0.43
  t1 (fluorescence lifetime): 1.5 ns
  t2 (fluorescence lifetime): 4.6 ns

## COC(=O)[C@H](CCCCNC(=O)[C@H](CCC(=O)OCc1ccccc1)NC(=O)OC(C)(C)C)NC(=O)[C@H](CCC(=O)OCc1ccccc1)NC(=O)OC(C)(C)C [reversin 205]
[1]; Kd1
  Kd: 0.37 ± 0.037 µM
[1]; [4]
  ΔFmax1: 5.41 ± 0.13%

## CN1CCN(CCCN2c3ccccc3Sc3ccc(C(F)(F)F)cc32)CC1 [trifluoperazine]
[1]; [3]
  ΔFmax2: 67.7 ± 4.1%
[1]; [4]
  ΔFmax1: 18.9 ± 0.87%
P-glycoprotein (Pgp)
  Kd: 16.8 ± 1.6 µM
[2]
  <tav> (amplitude average lifetime): 2.15 ns
  a1 (pre-exponential value): 0.72
  a2 (pre-exponential value): 0.35
  t1 (fluorescence lifetime): 1.1 ns
  t2 (fluorescence lifetime): 4.3 ns

## Nc1ncnc2c1ncn2C1OC(COP(=O)(O)OP(=O)(O)NP(=O)(O)O)C(O)C1O (stereo not drawn) [AMP-PNP, 5′-adenylylimido-diphosphate]
[1]; [4]
  ΔFmax1: 10.6%
[1]
  ΔFmax: ~10%
[1]; single type of binding site
  Kd: 210 µM

## Nc1ncnc2c1ncn2[C@@H]1O[C@H](COP(=O)(O)OP(=O)([O-])OP(=O)([O-])O)[C@@H](O)[C@H]1O.[Na+].[Na+] [ATP, disodium-ATP]
[1]; [4]
  ΔFmax1: 10.4%
[1]
  ΔFmax: ~10%
[1]; [6]
  Kd: 280 µM
[1]; single type of binding site
  Kd: ~300 µM

## CCCCCCCCCCCCCCCCCCOP(=O)([O-])OC1CC[N+](C)(C)CC1 [D21266]
[1]; [4]
  ΔFmax1: 13.0 ± 1.15%
[1]; [6]
  Kd: 20.1 ± 3.4 µM

## CCN(CC)c1ccc2c(-c3ccccc3C(=O)O)c3ccc(=[N+](CC)CC)cc-3oc2c1 [rhodamine B]
[1]; [6]
  Kd: 4 ± 0.45 µM
[1]; [5]
  Kd: 33.2 ± 3.1 µM

## CC(C)CC(=O)N[C@H](C(=O)N[C@H](C(=O)N[C@@H](CC(C)C)[C@@H](O)CC(=O)N[C@@H](C)C(=O)N[C@@H](CC(C)C)[C@@H](O)CC(=O)O)C(C)C)C(C)C [pepstatin A] (Isovaleryl-VV[Sta]A[Sta]-OH)
[1]; [7]
  Kd: 9.53 ± 0.78 µM
[1]; [4]
  ΔFmax1: 4.46 ± 0.073%

## COc1cccc2c1C(=O)c1c(O)c3c(c(O)c1C2=O)C[C@@](O)(C(=O)CO)C[C@@H]3O[C@H]1C[C@H](N)[C@H](O)[C@H](C)O1 [doxorubicin]
[1]
  Kd: 5.44 ± 0.55 µM
[1]; [3]
  ΔFmax2: 38.7 ± 3.0%
[1]; [4]
  ΔFmax1: 19.5 ± 0.90%
P-glycoprotein (Pgp)
  Kd: 21.6 ± 3.2 µM

## C/C=C/C[C@@H](C)C(=O)[C@H]1C(=O)N[C@@H](C(C)C)C(=O)N(C)CC(=O)N(C)[C@@H](CC(C)C)C(=O)N[C@@H](C(C)C)C(=O)N(C)[C@@H](CC(C)C)C(=O)N[C@@H](C)C(=O)N[C@H](C)C(=O)N(C)[C@@H](CC(C)C)C(=O)N(C)[C@@H](CC(C)C)C(=O)N(C)[C@@H](C(C)C)C(=O)N1C [PSC833]
[1]
  Kd: 0.081 ± 0.0071 µM
[1]; [4]
  ΔFmax1: 4.02 ± 0.079%

## O=c1cc(N2CCOCC2)oc2c(-c3ccccc3)cccc12 [LY294002]
[1]; [7]
  Kd: 6.29 ± 0.88 µM
[1]; Kd2, lower affinity site of biphasic quench curve
  Kd: 11.5 ± 1.5 µM
[1]; [3]
  ΔFmax2: 36.2 ± 2.0%
[1]; [4]
  ΔFmax1: 29.7 ± 1.6%

## C=C[C@H]1C[N@@]2CC[C@H]1C[C@H]2[C@H](O)c1ccnc2ccc(OC)cc12 [quinine]
[1]
  ΔFmax1: 33.5 ± 2.2%

## CC(C)[C@@H]1NC(=O)[C@H](C)OC(=O)[C@@H](C(C)C)NC(=O)[C@@H](C(C)C)OC(=O)[C@H](C(C)C)NC(=O)[C@H](C)OC(=O)[C@@H](C(C)C)NC(=O)[C@@H](C(C)C)OC(=O)[C@H](C(C)C)NC(=O)[C@H](C)OC(=O)[C@@H](C(C)C)NC(=O)[C@@H](C(C)C)OC1=O [valinomycin]
[1]
  Kd: 0.72 ± 0.084 µM
[1]; [4]
  ΔFmax1: 4.14 ± 0.086%

## tetramethylrosamine
[1]
  ΔFmax1: 21.0 ± 3.3%
  ΔFmax2: 32.8 ± 0.88%
[2]
  <tav> (amplitude average lifetime): 3.9 ns
  a1 (pre-exponential value): 2.43
  a2 (pre-exponential value): 1.1
  t1 (fluorescence lifetime): 0.55 ns

## CC[C@]1(O)C[C@@H]2CN(CCc3c([nH]c4ccccc34)[C@@](C(=O)OC)(c3cc4c(cc3OC)N(C)[C@H]3[C@@](O)(C(=O)OC)[C@H](OC(C)=O)[C@]5(CC)C=CCN6CC[C@]43[C@@H]65)C2)C1 [vinblastine]
[1]
  Kd: 0.5 ± 0.08 µM
[1]; [4]
  ΔFmax1: 17.5 ± 0.82%
[2]
  <tav> (amplitude average lifetime): 2.17 ns
  a1 (pre-exponential value): 1.07
  a2 (pre-exponential value): 0.51
  t1 (fluorescence lifetime): 1.1 ns
  t2 (fluorescence lifetime): 4.4 ns

## TNP-ATP
[1]; [4]
  ΔFmax1: 79.6%
[1]
  ΔFmax: ~80%
[1]; nucleotide alone, absence of drug
  Kd: 51 µM
[1]; [6]
  Kd: 50.6 µM
[1]; titration following daunorubicin binding
  Kd: 65 µM
[1]; titration following saturation with vinblastine
  Kd: 64 µM
[2]
  <tav> (amplitude average lifetime): 2.14 ns
  a1 (pre-exponential value): 0.69
  a2 (pre-exponential value): 0.42
  t1 (fluorescence lifetime): 1.0 ns
  t2 (fluorescence lifetime): 4.0 ns

## COc1cc2c(c(OC)c1OC)-c1ccc(OC)c(=O)cc1[C@@H](NC(C)=O)CC2 [colchicine]
[1]; [4]
  ΔFmax1: 102.2 ± 5.7%
[2]
  <tav> (amplitude average lifetime): 2.63 ns
  a1 (pre-exponential value): 0.66
  a2 (pre-exponential value): 0.39
  t1 (fluorescence lifetime): 1.4 ns
  t2 (fluorescence lifetime): 4.7 ns

## CCCCCCCCCCCCCCCCCCOP(=O)(O)OCC[N+]1(C)CCCCC1 [D-20133]
[1]; [4]
  ΔFmax1: 12.3 ± 0.89%
[1]; [6]
  Kd: 12.8 ± 2.1 µM

## CCOc1ccc(-c2nc3ccc(-c4nc5ccc(N6CCN(C)CC6)cc5[nH]4)cc3[nH]2)cc1 [Hoechst 33342]
[1]; [4]
  ΔFmax1: 57.2 ± 1.97%
[1]; [6]
  Kd: 2.61 ± 0.182 µM

## CC(C)(C)OC(=O)N[C@@H](CC(=O)OCc1ccccc1)C(=O)N[C@@H](CCCCNC(=O)OCc1ccccc1)C(=O)OC(C)(C)C [reversin 201] (Boc-Asp(OBn)-Lys(Cbz)-OtBu; N-terminus and C-terminus assumed)
[1]; Kd1
  Kd: 0.23 ± 0.02 µM

## CCCCCCCCCCCCCCCCOP(=O)([O-])OCC[N+](C)(C)C [mitelfosine]
[1]
  ΔFmax1: 12.0 ± 1.0%
[1]; [6]
  Kd: 20.6 ± 3.3 µM

## Nc1ncnc2c1ncn2[C@@H]1O[C@H](COP(=O)([O-])OP(=O)([O-])O)[C@@H](O)[C@H]1O.[Na+].[Na+] [ADP, disodium-ADP]
[1]; [4]
  ΔFmax1: 9.46%
[1]
  ΔFmax: ~10%
[1]; [6]
  Kd: 330 µM
[1]; single type of binding site
  Kd: ~300 µM
